Laboratory results as given in ChEMBL document CHEMBL1201862, “PubChem BioAssay data set” (2004).
Active and inactive are the calls of the source. Rule as the data show it: actives have a measured IC50 and inactives only a lower limit.

Target: Envelope glycoprotein gp160 (Human immunodeficiency virus 1, UniProt Q6QLK5)
Test: cell-free HIV fusion peptide-binding blockers – biochemical, uHTS, fluorescence dequenching, […] (AID 1986)

Envelope glycoprotein gp160, sequence (Q6QLK5 whole entry, the tested form may be a part): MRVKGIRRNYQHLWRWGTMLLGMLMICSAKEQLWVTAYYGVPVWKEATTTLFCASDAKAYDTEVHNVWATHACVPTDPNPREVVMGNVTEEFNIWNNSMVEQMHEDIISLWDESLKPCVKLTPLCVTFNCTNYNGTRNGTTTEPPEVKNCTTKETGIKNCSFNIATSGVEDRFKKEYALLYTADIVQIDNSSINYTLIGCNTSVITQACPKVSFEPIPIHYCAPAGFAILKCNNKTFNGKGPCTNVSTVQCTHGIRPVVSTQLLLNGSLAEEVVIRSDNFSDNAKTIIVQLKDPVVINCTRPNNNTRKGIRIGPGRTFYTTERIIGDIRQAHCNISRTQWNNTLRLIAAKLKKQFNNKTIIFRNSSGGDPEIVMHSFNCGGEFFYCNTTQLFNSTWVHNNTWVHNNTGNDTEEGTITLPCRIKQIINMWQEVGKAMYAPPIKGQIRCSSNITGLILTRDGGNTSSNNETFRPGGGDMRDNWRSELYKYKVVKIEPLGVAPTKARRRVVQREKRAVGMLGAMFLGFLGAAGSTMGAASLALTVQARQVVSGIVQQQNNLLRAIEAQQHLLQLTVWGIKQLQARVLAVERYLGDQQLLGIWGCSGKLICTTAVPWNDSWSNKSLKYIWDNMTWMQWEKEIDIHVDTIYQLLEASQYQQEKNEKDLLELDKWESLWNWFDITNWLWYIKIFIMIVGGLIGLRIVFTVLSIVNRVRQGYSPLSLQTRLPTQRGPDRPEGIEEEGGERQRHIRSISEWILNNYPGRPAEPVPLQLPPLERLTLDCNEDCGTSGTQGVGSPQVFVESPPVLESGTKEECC

| Structure (SMILES) | IC50 |
| --- | --- |
| O=C(O)c1[nH]c2ccccc2c1C(c1c(F)cccc1Cl)c1c(C(=O)O)[nH]c2ccccc12 | 13.4 µM (active) |
| Cc1nn(CCc2nn[nH]n2)c2nc(-c3ccc(C4CCCCC4)cc3)cc(C(F)(F)F)c12 | 12.4 µM (active) |
